Experimental data taken from patent US5441941A, “1,2-dihydroellipticines with activity against CNS specific cancer” (The United States of America as represented by the …, priority 1993, dated 1995).

Key:
XF 498 = assay: NCI in vitro screen, SRB percent growth, CNS Cancer
M14 = assay: NCI in vitro screen, SRB percent growth, Melanoma
HCC-2998 = assay: cells; conditions: Homo sapiens
ACHN = assay: NCI in vitro screen, SRB percent growth, Renal Cancer
HCT-116 = assay: NCI in vitro screen, SRB percent growth, Colon Cancer
EKVX = assay: cells; conditions: Homo sapiens
OVCAR-3 = assay: NCI in vitro screen, SRB percent growth, Ovarian Cancer
U251 = assay: NCI in vitro screen, SRB percent growth, CNS Cancer
HL-60 (TB) = assay: NCI in vitro screen, SRB percent growth, Leukemia
786-0 = assay: cells; conditions: Homo sapiens
RXF-631 = assay: NCI in vitro screen, SRB percent growth, Renal Cancer
CNS cancer cell lines = assay: NCI in vitro screen, overall result on CNS cancer cell lines; conditions: Tables I and II
IGROV1 = assay: NCI in vitro screen, SRB percent growth, Ovarian Cancer
K-562 = assay: NCI in vitro screen, SRB percent growth, Leukemia
UACC-257 = assay: NCI in vitro screen, SRB percent growth, Melanoma
OVCAR-5 = assay: NCI in vitro screen, SRB percent growth, Ovarian Cancer
SF-539 = assay: NCI in vitro screen, SRB percent growth, CNS Cancer
[1] = Log10 Concentration -4.0, 100 µM
[2] = Log10 Concentration -7.0, 0.1 µM
[3] = HCC 2998, read-out: Percent Growth
[4] = 786-0, read-out: Percent Growth

With COc1ccc2[nH]c3c(C)c4c(c(C)c3c2c1)CN(C)C=C4 [Formula VII] the “Percent Growth” value (XF 498; [1]) was -60%, the “Percent Growth” value (XF 498; Log10 Concentration -5.0) was -25% and the “Percent Growth” value (XF 498; Log10 Concentration -6.0, 1 µM) was 81%. The “Percent Growth” value (XF 498; [2]) was 140%, the “Percent Growth” value (XF 498; Log10 Concentration -8.0) was 174% and the TGI (XF 498; PG=0) was 5.82 µM. For the same compound, the GI50 (XF 498; PG=+50) was 1.97 µM, the CC50 (XF 498; read-out: LC-50, PG=-50) was 52.7 µM and the “Percent Growth” value (M14; [1]) was -98%. The “Percent Growth” value (M14; Log10 Concentration -5.0) was 40%, the “Percent Growth” value (M14; Log10 Concentration -6.0, 1 µM) was 103% and the “Percent Growth” value (M14; [2]) was 111%. The “Percent Growth” value (M14; Log10 Concentration -8.0) was 99%, the TGI (M14; PG=0) was 19.6 µM and the GI50 (M14; PG=+50) was 7.01 µM. The CC50 (M14; read-out: LC-50, PG=-50) was 45.2 µM, the GI50 (HCC-2998; HCC 2998) was 4.74 µM and the CC50 (HCC-2998; HCC 2998, read-out: LC-50) was 43.9 µM. It also gave an activity at 0.01 µM (HCC-2998; [3]) of 111%, an activity at 0.1 µM (HCC-2998; [3]) of 90% and an activity at 1 µM (HCC-2998; [3]) of 98%. For the same compound, the activity at 10 µM (HCC-2998; [3]) was 27%, the activity at 100 µM (HCC-2998; [3]) was -93% and the IC (TGI) (HCC-2998; HCC 2998, read-out: TGI) was 16.8 µM. The “Percent Growth” value (ACHN; [1]) was -4%, the “Percent Growth” value (ACHN; Log10 Concentration -5.0) was 79% and the “Percent Growth” value (ACHN; Log10 Concentration -6.0, 1 µM) was 102%. The “Percent Growth” value (ACHN; [2]) was 113%, the “Percent Growth” value (ACHN; Log10 Concentration -8.0) was 113% and the TGI (ACHN; PG=0) was 89.1 µM. The GI50 (ACHN; PG=+50) was 22.4 µM, the CC50 (ACHN; read-out: LC-50, PG=-50) was greater than 100 µM and the “Percent Growth” value (HCT-116; [1]) was -28%. For the same compound, the “Percent Growth” value (HCT-116; Log10 Concentration -5.0) was 29%, the “Percent Growth” value (HCT-116; Log10 Concentration -6.0, 1 µM) was 80% and the “Percent Growth” value (HCT-116; [2]) was 101%. For the same compound, the “Percent Growth” value (HCT-116; Log10 Concentration -8.0) was 106%, the TGI (HCT-116; PG=0) was 32.2 µM and the GI50 (HCT-116; PG=+50) was 3.88 µM. It also gave a CC50 (HCT-116; read-out: LC-50, PG=-50) greater than 100 µM, a GI50 (EKVX) of 0.774 µM and an activity at 0.01 µM (EKVX; read-out: Percent Growth) of 114%. For the same compound, the activity at 0.1 µM (EKVX; read-out: Percent Growth) was 108%, the activity at 1 µM (EKVX; read-out: Percent Growth) was 43% and the activity at 10 µM (EKVX; read-out: Percent Growth) was 3%. The activity at 100 µM (EKVX; read-out: Percent Growth) was -11%, the IC (TGI) (EKVX; read-out: TGI) was 16.5 µM and the “Percent Growth” value (OVCAR-3; [1]) was -31%. For the same compound, the “Percent Growth” value (OVCAR-3; Log10 Concentration -5.0) was 10%, the “Percent Growth” value (OVCAR-3; Log10 Concentration -6.0, 1 µM) was 74% and the “Percent Growth” value (OVCAR-3; [2]) was 91%. The “Percent Growth” value (OVCAR-3; Log10 Concentration -8.0) was 98%, the TGI (OVCAR-3; PG=0) was 17.3 µM and the GI50 (OVCAR-3; PG=+50) was 2.39 µM. The CC50 (OVCAR-3; read-out: LC-50, PG=-50) was greater than 100 µM, the “Percent Growth” value (U251; [1]) was -47% and the “Percent Growth” value (U251; Log10 Concentration -5.0) was -45%. For the same compound, the “Percent Growth” value (U251; Log10 Concentration -6.0, 1 µM) was 3%, the “Percent Growth” value (U251; [2]) was 87% and the TGI (U251; PG=0) was 1.18 µM. For the same compound, the GI50 (U251; PG=+50) was 0.276 µM, the CC50 (U251; read-out: LC-50, PG=-50) was greater than 100 µM and the “Percent Growth” value (HL-60 (TB); [1]) was -43%. The “Percent Growth” value (HL-60 (TB); Log10 Concentration -5.0) was 93%, the “Percent Growth” value (HL-60 (TB); Log10 Concentration -6.0, 1 µM) was 121% and the “Percent Growth” value (HL-60 (TB); [2]) was 123%. The “Percent Growth” value (HL-60 (TB); Log10 Concentration -8.0) was 118%, the TGI (HL-60 (TB); PG=0) was 48.5 µM and the GI50 (HL-60 (TB); PG=+50) was 20.8 µM. It also gave a CC50 (HL-60 (TB); read-out: LC-50, PG=-50) greater than 10000 µM, a GI50 (786-0; 786-0) of 0.0408 µM and a CC50 (786-0; 786-0, read-out: LC-50) of 66.7 µM. It also gave an activity at 0.01 µM (786-0; [4]) of 69%, an activity at 0.1 µM (786-0; [4]) of 38% and an activity at 1 µM (786-0; [4]) of 3%. For the same compound, the activity at 10 µM (786-0; [4]) was -20%, the activity at 100 µM (786-0; [4]) was -56% and the IC (TGI) (786-0; 786-0, read-out: TGI) was 1.3 µM. The “Percent Growth” value (RXF-631; [1]) was -29%, the “Percent Growth” value (RXF-631; Log10 Concentration -5.0) was 18% and the “Percent Growth” value (RXF-631; Log10 Concentration -6.0, 1 µM) was 38%. The “Percent Growth” value (RXF-631; [2]) was 83%, the “Percent Growth” value (RXF-631; Log10 Concentration -8.0) was 106% and the TGI (RXF-631; PG=0) was 24.3 µM. For the same compound, the GI50 (RXF-631; PG=+50) was 0.536 µM, the CC50 (RXF-631; read-out: LC-50, PG=-50) was greater than 100 µM and the “effect against CNS cancer cell lines” value (CNS cancer cell lines) was “particularly effective against CNS cancer cell lines”. The “Percent Growth” value (IGROV1; [1]) was -20%, the “Percent Growth” value (IGROV1; Log10 Concentration -5.0) was 14% and the “Percent Growth” value (IGROV1; Log10 Concentration -6.0, 1 µM) was 47%. For the same compound, the “Percent Growth” value (IGROV1; [2]) was 80%, the “Percent Growth” value (IGROV1; Log10 Concentration -8.0) was 105% and the TGI (IGROV1; PG=0) was 25.3 µM. The GI50 (IGROV1; PG=+50) was 0.819 µM, the CC50 (IGROV1; read-out: LC-50, PG=-50) was greater than 100 µM and the “Percent Growth” value (K-562; [1]) was -24%. For the same compound, the “Percent Growth” value (K-562; Log10 Concentration -5.0) was 11%, the “Percent Growth” value (K-562; Log10 Concentration -6.0, 1 µM) was 75% and the “Percent Growth” value (K-562; [2]) was 84%. For the same compound, the TGI (K-562; PG=0) was 20.4 µM, the GI50 (K-562; PG=+50) was 2.48 µM and the CC50 (K-562; read-out: LC-50, PG=-50) was greater than 100 µM. For the same compound, the “Percent Growth” value (UACC-257; [1]) was -5%, the “Percent Growth” value (UACC-257; Log10 Concentration -6.0, 1 µM) was 108% and the “Percent Growth” value (UACC-257; [2]) was 113%. For the same compound, the “Percent Growth” value (UACC-257; Log10 Concentration -8.0) was 110%, the TGI (UACC-257; PG=0) was 80.7 µM and the GI50 (UACC-257; PG=+50) was 9.63 µM. For the same compound, the CC50 (UACC-257; read-out: LC-50, PG=-50) was greater than 100 µM, the “Percent Growth” value (OVCAR-5; [1]) was -10% and the “Percent Growth” value (OVCAR-5; Log10 Concentration -5.0) was 70%. The “Percent Growth” value (OVCAR-5; Log10 Concentration -6.0, 1 µM) was 119%, the “Percent Growth” value (OVCAR-5; [2]) was 136% and the “Percent Growth” value (OVCAR-5; Log10 Concentration -8.0) was 133%. It also gave a TGI (OVCAR-5; PG=0) of 75.5 µM, a GI50 (OVCAR-5; PG=+50) of 17.8 µM and a CC50 (OVCAR-5; read-out: LC-50, PG=-50) greater than 100 µM. For the same compound, the “Percent Growth” value (SF-539; [1]) was -33%, the “Percent Growth” value (SF-539; Log10 Concentration -5.0) was -43% and the “Percent Growth” value (SF-539; Log10 Concentration -6.0, 1 µM) was 30%. The “Percent Growth” value (SF-539; [2]) was 99%, the “Percent Growth” value (SF-539; Log10 Concentration -8.0) was 116% and the TGI (SF-539; PG=0) was 2.6 µM. It also gave a GI50 (SF-539; PG=+50) of 0.518 µM and a CC50 (SF-539; read-out: LC-50, PG=-50) greater than 100 µM.
